Source: patent publication US11773146B2, “Disruption of the WAVE3 protein complex for suppression of invasion and metastasis” (UNIVERSITY OF GEORGIA RESEARCH FOUNDATION, INC., priority 2015, dated 2023)
Entries after “also recorded” stand apart in the source; their conditions may differ. Bridges are numbered along the chain shown (N, C = ends). Where no end group is shown, it is not given here. [ ]: non-standard residue; d: D form. S5 = C=CCCC[C@](C)(N)C(=O)O

Key:
WASF3 [1] = experiment: IP analysis of WASF3 phosphorylation; format: cell-based; settings: for WASF3 phosphorylation levels: MDA-MB-231 cells, same effect in PC3; for suppression of WASF3 phosphorylation compared with 17-AAG: comparison with HSP90 inhibitor 17-AAG
Procedure: (§1) Immunoprecipitation assays were carried out as described previously (Sossey-Alaoui, K., et al. J. Biol. Chem. 82:26257-26265 (2007)). Specially, to determine the physical interaction with individual peptides, MDA-MB-231 cells were pretreated with 10 μM biotin-labeled peptides for 24 hours and lysates were incubated with immobilized avidin resin overnight at 4° C. The pull down samples were subjected to SDS-PAGE followed by Western blot analysis.

[2] = system: MDA-MB-231 and Hs578T cells; experiment: Transwell invasion assay with RAC1 inhibitor; format: cell-based; settings: dose-dependent treatment
Source text: (§2) MDA-MB-231, Hs578T and T47D breast cancer cell lines were obtained directly from American Type Culture Collection (Rockville, Md.). MDA-MB-231 and T47D and have been verified using SNP-CGH (Teng Y, et al. Int J Cancer 2011 129:2825-2835) for characteristic cytogenetic changes. The ATCC Cell Authentication Testing service confirmed the identity of Hs578T using STR DNA fingerprinting analysis. Standard cell culture, transient transfections, RT-PCR, western blotting, immunoprecipitation (IP), flow cytometry, Biotin-Avidin pulldown, lentiviral transduction, cell proliferation and Transwell invasion assays were carried out as described previously (Teng Y, et al. Int J Cancer 2011 129:2825-2835; Teng Y, et al. J Biol Chem 2012 287:10051-10059; Teng Y, et al. Carcinogenesis 2013 34:1994-1999).

WASF3, NCKAP1 or RAC1 = experiment: Western blot of protein levels with RAC1 inhibitor; format: cell-based; settings: MDA-MB-231 and Hs578T cells
Source text: as §2

[3] = system: MDA-MB-231 cells overexpressing NCKAP1; experiment: Transwell invasion assay in cells overexpressing NCKAP1; format: cell-based; settings: parental cells with empty vector and cells overexpressing NCKAP1
Source text: as §2
Lentiviral pCDH-CMV-MCS-EF1-PURO-HA-WASF3 (pCDH-HA-WASF3) was generated as described previously (Teng Y, et al. Carcinogenesis 2013 34:1994-1999). To construct the HA-NCKAP1 overexpression vector, the full-length human NCKAP1 was amplified from the template NCKAP1 cDNA clone (OriGene, Rockville, Md.) and was inserted into pCDHCMV-MCS-EF1-GFP lentiviral vector (System Biosciences, Mountain View, Calif.) as described previously (Teng Y, et al. Oncogene 2014 33:203-211). […]

MDA-MB-231 cells = experiment: Transwell invasion assay (WANT peptides); format: cell-based; settings: for invasion potential: final concentration of 10 μM
Source text: There are currently no small molecules that target WASF3 function directly, but targeting the WRC may provide a means of suppressing invasion.

MDA-MB-231 and PC3 cells [4] = experiment: Transwell invasion analysis (WAHM peptides); format: cell-based; settings: breast and prostate cells
Procedure: (§3) Hs578T, MDA-MB-231, DU145 and PC3 cells were purchased from the American Type Culture Collection (ATCC) and maintained according to the supplier's instructions. Lentiviral transduction, cell proliferation assays, wound healing assays, Matrigel invasion assays, Western blotting, flow cytometry and confocal image analysis were carried out as described previously (Teng, Y., et al. Br. J. Cancer 103:1066-1075 (2010); Teng, Y., et al. Int. J. Cancer 129:2825-2835 (2011); Teng, Y., et al. Oncogene 33:203-211 (2014); Teng, Y., et al. J. Biol. Chem. 287:10051-10059 (2012); Teng, Y., et al. Carcinogenesis […] (2013); Teng, Y. et al. Oncogene Mar 30 (2015)).

CYFIP1 = molecular target: T1, CYFIP1 (Homo sapiens, UniProt Q7L576); experiment: Avidin-biotin pull down with biotinylated stapled peptides; format: binding; settings: biotinylated peptide 10 μM, MDA-MB-231 cells
T1 construct: endogenous in cells; host or cells: MDA-MB-231
T1 sequence (Q7L576 whole entry): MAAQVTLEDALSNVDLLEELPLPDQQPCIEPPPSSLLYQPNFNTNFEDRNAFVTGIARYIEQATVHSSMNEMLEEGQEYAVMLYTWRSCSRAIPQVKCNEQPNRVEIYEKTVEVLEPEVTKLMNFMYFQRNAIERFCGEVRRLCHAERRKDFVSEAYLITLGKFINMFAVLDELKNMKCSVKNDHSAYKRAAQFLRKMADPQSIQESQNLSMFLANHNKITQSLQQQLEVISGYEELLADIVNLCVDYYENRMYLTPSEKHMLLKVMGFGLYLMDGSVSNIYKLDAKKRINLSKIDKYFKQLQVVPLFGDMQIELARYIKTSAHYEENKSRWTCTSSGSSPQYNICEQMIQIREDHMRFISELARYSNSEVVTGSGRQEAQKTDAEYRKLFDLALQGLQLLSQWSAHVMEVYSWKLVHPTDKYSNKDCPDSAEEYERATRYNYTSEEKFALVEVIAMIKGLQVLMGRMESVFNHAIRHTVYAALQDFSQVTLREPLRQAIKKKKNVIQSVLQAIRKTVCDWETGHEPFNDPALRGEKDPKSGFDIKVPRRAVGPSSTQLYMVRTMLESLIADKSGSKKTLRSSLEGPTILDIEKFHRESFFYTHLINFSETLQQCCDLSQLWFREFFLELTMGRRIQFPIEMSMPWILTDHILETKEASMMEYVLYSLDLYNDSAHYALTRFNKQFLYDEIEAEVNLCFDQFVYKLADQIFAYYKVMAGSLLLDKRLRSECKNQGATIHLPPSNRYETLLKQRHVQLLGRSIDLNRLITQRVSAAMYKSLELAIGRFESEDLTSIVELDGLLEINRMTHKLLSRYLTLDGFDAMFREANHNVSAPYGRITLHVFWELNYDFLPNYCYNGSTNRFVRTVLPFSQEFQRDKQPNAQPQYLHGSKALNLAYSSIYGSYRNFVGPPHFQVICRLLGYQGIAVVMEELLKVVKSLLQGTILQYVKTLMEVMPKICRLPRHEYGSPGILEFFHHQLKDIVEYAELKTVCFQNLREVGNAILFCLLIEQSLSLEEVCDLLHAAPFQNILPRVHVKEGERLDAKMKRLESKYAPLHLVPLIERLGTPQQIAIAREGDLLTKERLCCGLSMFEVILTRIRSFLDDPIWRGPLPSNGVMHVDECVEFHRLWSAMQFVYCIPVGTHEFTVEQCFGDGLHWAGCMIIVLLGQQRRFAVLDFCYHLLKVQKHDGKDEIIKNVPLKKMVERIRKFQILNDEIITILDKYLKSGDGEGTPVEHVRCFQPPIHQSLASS
Procedure: as §1
To determine whether the SPs formed a complex with WASF3 within the cells, MDA-MB-231 cells were exposed to biotinylated WAHM1 and WAHM2 for 6 hours, after which the cells were lysed and pull down assays were performed using avidin-coated beads.

MDA-MB-231 and PC3 cells [5] = experiment: Scratch wound assay; format: cell-based; settings: breast and prostate cell lines, versus DMSO and scrambled peptide
Procedure: as §3

MDA-MB-231 and PC3 cells [6] = experiment: Phalloidin staining and quantitation of filamentous actin; format: cell-based; settings: 24 hours; for actin stress fibers (phalloidin staining): 10 μM; for fluorescence intensity of phalloidin stained cells: versus DMSO or scrambled peptides
Procedure: MDA-MB-231 and PC3 cells were seeded (10,000 cells per well) on slides with the Nunc™ Lab-Tek™ II Chamber Slide™ System (Thermo Fisher Scientific) in complete medium overnight and incubated with 10 μM WAHM or scrambled peptides for 24 hours. Cells were then fixed with 3.7% formaldehyde for 15 min and permeabilized with 0.1% Triton X-100 for 10 min and incubated with Texas-red phalloidin (Life technologies) for an additional 30 min to stain actin filaments. Cells were imaged using a Zeiss LSM 410 confocal microscope equipped with ×63 (1.4 numerical aperture) oil objective (Carl Zeiss) as previously described8. To quantitate the filamentous actin, cells were seeded at 2000 cells per well in a 96 well plate and treated with […] or scrambled peptides for 24 hours. Cells were then stained with phalloidin as described above, followed by extensive washings. Phallodin was solubilized with methanol and the supernatant was transferred to a clear-bottom black plate, and the fluorescence was determined using Infinite® M1000 PRO (Tecan). A parallel set of cells was used to determine cell number using the CellTiter-Glo® Luminescent Cell Viability kit from Promega (Madison), according to the manufacturer's parameters. Data from three independent experiments were expressed as mean relative fluorescence units per cell SEM.

MMP-9 = MMP-9 secretion in culture supernatant by ELISA; format: cell-based, Human; settings: MDA-MB-231 and PC3 cells, 24 hours, compared with scrambled controls
Procedure: After incubation with WAHM or scrambled peptides for 24 hours, MDA-MB-231 and PC3 cell supernatants were recovered and centrifuged at 1000 g at 4° C. for 20 min. MMP-9 levels in supernatants were measured using the Human MMP-9 Quantikine® ELISA kit (R&D Systems) and microplate reader at 450 nm.

KISS1 = experiment: Western blot of KISS1 levels; format: cell-based; settings: MDA-MB-231 cells, compared with scrambled peptides
Procedure: as §3

WASF3 [7] = experiment: Western blot of WASF3 protein levels after WAHM treatment; format: cell-based; settings: for WASF3 levels in serum-starved cells: MDA-MB-231 and PC3 cells starved overnight, then treated for 4 hours; for intracellular levels of either WASF3 or CYFIP1: MDA-MB-231 cells; for WASF3 protein levels: MDA-MB-231 cells in serum, 2 to 24 hours
Procedure: as §3

MDA-MB-231 and PC3 cells [8] = experiment: MTS cell proliferation assay; format: cell-based; settings: 10 μM over 24 hours
Procedure: as §3

WASF3-CYFIP1 complex = molecular target: T2, WASF3-CYFIP1 complex (Homo sapiens, UniProt Q7L576); experiment: IP of WASF3: presence of CYFIP1 in the immunocomplex; format: cell-based; settings: MDA-MB-231 cells treated with the SPs
T2 construct: endogenous in cells; host or cells: MDA-MB-231
T2 sequence (Q7L576 whole entry): as above
T2 sequence (Q9Y2A7 2-1128 partner limits assumed): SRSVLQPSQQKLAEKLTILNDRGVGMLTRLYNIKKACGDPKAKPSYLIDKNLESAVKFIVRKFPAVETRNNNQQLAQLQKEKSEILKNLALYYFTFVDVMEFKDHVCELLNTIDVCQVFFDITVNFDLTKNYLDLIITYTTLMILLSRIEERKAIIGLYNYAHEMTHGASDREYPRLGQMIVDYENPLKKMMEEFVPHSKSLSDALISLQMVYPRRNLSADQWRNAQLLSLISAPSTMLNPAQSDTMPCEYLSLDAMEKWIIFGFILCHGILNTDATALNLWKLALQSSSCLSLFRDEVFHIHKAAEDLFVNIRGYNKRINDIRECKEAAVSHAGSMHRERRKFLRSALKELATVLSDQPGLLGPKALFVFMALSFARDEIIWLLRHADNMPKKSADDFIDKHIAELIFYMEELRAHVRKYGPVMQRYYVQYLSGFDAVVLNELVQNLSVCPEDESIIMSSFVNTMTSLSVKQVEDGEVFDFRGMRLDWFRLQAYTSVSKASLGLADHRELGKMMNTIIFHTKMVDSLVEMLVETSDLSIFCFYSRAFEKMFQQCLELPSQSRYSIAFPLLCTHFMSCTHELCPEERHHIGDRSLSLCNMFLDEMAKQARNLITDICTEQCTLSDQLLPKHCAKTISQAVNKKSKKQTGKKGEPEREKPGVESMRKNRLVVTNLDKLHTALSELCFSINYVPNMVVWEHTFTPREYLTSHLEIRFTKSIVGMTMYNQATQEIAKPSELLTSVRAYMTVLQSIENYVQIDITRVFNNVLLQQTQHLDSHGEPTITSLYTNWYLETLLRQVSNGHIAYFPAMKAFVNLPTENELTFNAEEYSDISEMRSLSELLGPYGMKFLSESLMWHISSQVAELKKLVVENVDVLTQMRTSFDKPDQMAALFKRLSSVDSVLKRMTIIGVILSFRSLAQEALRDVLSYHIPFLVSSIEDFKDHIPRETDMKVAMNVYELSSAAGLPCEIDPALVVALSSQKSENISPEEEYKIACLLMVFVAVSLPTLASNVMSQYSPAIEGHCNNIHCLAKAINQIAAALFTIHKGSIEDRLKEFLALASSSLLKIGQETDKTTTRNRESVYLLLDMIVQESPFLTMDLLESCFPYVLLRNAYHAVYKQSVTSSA
Procedure: as §1

Row | Compound | WASF3 phosphorylation levels (WASF3 [1]) | invasion potential (MDA-MB-231 cells) | effect on invasion (in words) (MDA-MB-231 and PC3 cells [4]) | CYFIP1 in the pull down complex (CYFIP1) | migration potential / cell motility (MDA-MB-231 and PC3 cells [5]) | actin stress fibers (phalloidin staining) (MDA-MB-231 and PC3 cells [6]) | fluorescence intensity of phalloidin stained cells (MDA-MB-231 and PC3 cells [6]) | secreted MMP9 levels (MMP-9) | KISS1 protein levels (KISS1) | WASF3 levels in serum-starved cells (WASF3 [7]) | intracellular levels of either WASF3 or CYFIP1 (WASF3 [7]) | WASF3 protein levels (WASF3 [7]) | cell proliferation (MTS) (MDA-MB-231 and PC3 cells [8]) | suppression of WASF3 phosphorylation compared with 17-AAG (WASF3 [1]) | CYFIP1 in WASF3 immunocomplex (WASF3-CYFIP1 complex) | further results
1 | C=CCNC1=C2C[C@@H](C)C[C@H](OC)[C@H](O)[C@@H](C)/C=C(\C)[C@H](OC(N)=O)[C@@H](OC)/C=C\C=C(/C)C(=O)NC(=CC1=O)C2=O [17-AAG, reference compound] | reduced WASF3 phosphoactivation | – | – | – | – | – | – | – | – | – | – | – | – | – | – | –
2 | CCN(CC)CCCC(C)Nc1nc(C)cc(Nc2ccc3nc(C)cc(N)c3c2)n1 (stereo not drawn) [NSC23766] | – | – | – | – | – | – | – | – | – | – | – | – | – | – | – | invasion [2]: dose-dependent reduction in invasion potential; protein levels of either WASF3, NCKAP1 or RAC1 (WASF3, NCKAP1 or RAC1): without affecting; also recorded: does not affect protein levels; invasion potential in cells expressing NCKAP1 [3]: significant reduction in invasion; invasion potential in cells expressing NCKAP1 ([3]; listed as NSC23677): significant reduction of invasion potential
3 | ELXSSIXDFKDHK (EL[S5]SSI[S5]DFKDHK-NH2; staple 3-7) [WANT2, WASF3-NCKAP1 Target stapled peptide; X is (S)-2-(4′-pentenyl)alanine] | – | no significant effect on invasion potential | – | – | – | – | – | – | – | – | – | – | – | – | – | –
4 | KHCAXTISXAVNK (KHCA[S5]TIS[S5]AVNK-NH2; staple 5-9) [WANT1, WASF3-NCKAP1 Target stapled peptide; X is (S)-2-(4′-pentenyl)alanine] | – | no significant effect on invasion potential | – | – | – | – | – | – | – | – | – | – | – | – | – | –
5 | LEK*TNS*LAKIIRQL (LEK[S5]TNS[S5]LAKIIRQL-NH2; staple 4-8; not fully specified (N-terminus)) [WAHM1, WASF Helix Mimic stapled peptide; * is (S)-2-(4′-pentenyl)alanine that forms the staple] | dramatic decrease in WASF3 phosphorylation levels; also recorded: reduction in WASF3 phosphorylation | – | significantly suppresses invasion | CYFIP1 was present in the pull down complex; also recorded: CYFIP1 was shown to interact | reduced migration potential; also recorded: significant reduction in cell motility | increase in both the number and thickness of the actin stress fibers | increased intensity | remarkable reduction in secreted MMP9 levels; also recorded: significantly reduced MMP9 levels | increased KISS1 levels; also recorded: KISS1 levels increase | reduced below detectable levels | did not affect | WASF3 protein levels were not affected; also recorded: without a reduction in WASF3 protein levels; also recorded: no reduction in WASF3 protein levels | no significant difference in cell proliferation | more efficient | CYFIP1 was not present in the immunocomplex | suppression of invasion, WAHM1 compared with WANT3 (MDA-MB-231 cells): comparable suppression of invasion
6 | LEKKTN*TLA*IIRQL (LEKKTN[S5]TLA[S5]IIRQL-NH2; staple 7-11; not fully specified (N-terminus)) [WAHM2, WASF Helix Mimic stapled peptide; * is (S)-2-(4′-pentenyl)alanine that forms the staple] | dramatic decrease in WASF3 phosphorylation levels; also recorded: reduction in WASF3 phosphorylation | – | significantly suppresses invasion | CYFIP1 was present in the pull down complex; also recorded: CYFIP1 was shown to interact | reduced migration potential; also recorded: significant reduction in cell motility | increase in both the number and thickness of the actin stress fibers | increased intensity | remarkable reduction in secreted MMP9 levels; also recorded: significantly reduced MMP9 levels | increased KISS1 levels; also recorded: KISS1 levels increase | reduced below detectable levels | did not affect | WASF3 protein levels were not affected; also recorded: without a reduction in WASF3 protein levels; also recorded: no reduction in WASF3 protein levels | no significant difference in cell proliferation | more efficient | CYFIP1 was not present in the immunocomplex | –
